Results as given in PMC11945486, “TAS1R2/TAS1R3 Single-Nucleotide Polymorphisms Affect Sweet Taste Receptor Activation by Sweeteners: The SWEET Project” (Nutrients, 2025).
No end group written: not given here.

Molecular target: T1, mTAS1R2-WT/mTAS1R3-WT (Mus musculus, UniProt Q925D8+Q925I4)
T1 construct: expressed in transfected cells; host or cells: HEK293T-Gα16gust44
T1 sequence (Q925I4 20-843): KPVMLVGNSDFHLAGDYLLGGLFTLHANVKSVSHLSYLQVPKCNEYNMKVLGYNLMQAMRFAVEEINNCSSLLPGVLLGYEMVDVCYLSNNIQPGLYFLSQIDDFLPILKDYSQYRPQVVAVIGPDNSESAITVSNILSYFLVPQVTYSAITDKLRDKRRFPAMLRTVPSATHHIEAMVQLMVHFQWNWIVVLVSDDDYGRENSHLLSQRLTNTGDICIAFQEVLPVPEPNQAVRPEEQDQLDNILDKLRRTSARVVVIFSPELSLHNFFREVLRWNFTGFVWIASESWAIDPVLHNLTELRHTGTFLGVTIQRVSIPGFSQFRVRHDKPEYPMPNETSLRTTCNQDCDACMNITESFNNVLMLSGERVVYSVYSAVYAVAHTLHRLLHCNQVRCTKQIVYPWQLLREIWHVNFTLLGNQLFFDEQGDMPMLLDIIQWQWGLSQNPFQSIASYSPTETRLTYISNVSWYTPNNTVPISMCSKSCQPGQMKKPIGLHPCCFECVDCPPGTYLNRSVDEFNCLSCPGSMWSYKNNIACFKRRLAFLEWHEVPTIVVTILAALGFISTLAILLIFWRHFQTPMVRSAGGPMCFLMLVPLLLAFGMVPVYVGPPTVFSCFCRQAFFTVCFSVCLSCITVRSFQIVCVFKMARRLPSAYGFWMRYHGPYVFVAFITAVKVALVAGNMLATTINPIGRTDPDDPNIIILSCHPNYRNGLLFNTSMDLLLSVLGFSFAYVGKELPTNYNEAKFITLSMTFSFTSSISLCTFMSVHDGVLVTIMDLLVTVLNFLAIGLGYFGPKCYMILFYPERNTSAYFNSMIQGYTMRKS
T1 sequence (Q925D8 21-858): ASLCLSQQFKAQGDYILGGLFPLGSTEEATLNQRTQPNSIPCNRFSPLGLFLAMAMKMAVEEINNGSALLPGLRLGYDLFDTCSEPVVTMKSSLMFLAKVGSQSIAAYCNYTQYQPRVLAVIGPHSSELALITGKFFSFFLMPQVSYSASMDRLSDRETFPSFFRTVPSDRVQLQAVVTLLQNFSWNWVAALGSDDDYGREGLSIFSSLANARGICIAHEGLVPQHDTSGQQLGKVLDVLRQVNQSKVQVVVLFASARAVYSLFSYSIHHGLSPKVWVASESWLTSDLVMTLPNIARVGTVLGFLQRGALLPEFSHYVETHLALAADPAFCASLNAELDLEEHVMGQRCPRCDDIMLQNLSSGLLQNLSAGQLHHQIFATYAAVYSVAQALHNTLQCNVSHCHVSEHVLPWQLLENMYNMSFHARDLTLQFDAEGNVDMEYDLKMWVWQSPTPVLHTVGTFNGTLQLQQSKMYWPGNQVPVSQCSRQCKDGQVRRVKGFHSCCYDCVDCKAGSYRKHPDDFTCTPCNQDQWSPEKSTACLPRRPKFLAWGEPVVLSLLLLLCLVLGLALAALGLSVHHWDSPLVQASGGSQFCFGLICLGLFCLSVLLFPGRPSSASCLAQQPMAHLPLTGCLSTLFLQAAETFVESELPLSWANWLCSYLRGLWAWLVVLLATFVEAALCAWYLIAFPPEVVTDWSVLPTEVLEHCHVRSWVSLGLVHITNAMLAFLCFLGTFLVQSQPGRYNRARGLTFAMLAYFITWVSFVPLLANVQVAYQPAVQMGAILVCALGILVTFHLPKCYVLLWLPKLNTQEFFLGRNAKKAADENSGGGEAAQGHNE
Test: Calcium mobilisation assay, HEK293T-Gα16gust44 cells, mouse sweet taste receptor WT
Format: cell-based
Conditions: for EC50 / Max ΔF/F0: mTAS1R2-WT + mTAS1R3-WT, "-": no activation; for Max ΔF/F0: maximal signal amplitude; for activation of the mouse sweet taste receptor: result in words
Procedure: The HEK293T cells were kindly provided by Jay P. Slack (Givaudan Flavors Corporation; Cincinnati, OH, USA). HEK293T cells stably transfected with Gα16gust44 [43, 67] were seeded in poly-D-lysine-coated clear-bottom black 96-well plates (0.35 × 10^5 cells/well) in high-glucose DMEM supplemented with 2 mM GlutaMAX, 10% dialysed foetal bovine serum with penicillin/streptomycin and G418 (400 μg/mL) at 37 °C and 6.3% CO2 in a humidified atmosphere as previously reported. […] As a negative control, HEK293T cells were mock-transfected with the empty expression vector. After a further 24 h of incubation, the HEK293T cells were washed with C1 buffer (130 mM NaCl, 5 mM KCl, 10 mM HEPES pH 7.4 and 2 mM CaCl2). The 96-well plates containing the cells were then stimulated with sweet-tasting compounds. […] Different concentration ranges were tested depending on the sweet compound injected. The Ca^2+ changes were expressed as fractional changes in fluorescent light intensity: ΔF/F = (F − F0)/F0, where F was the fluorescent light intensity at each point, and F0 was the value of emitted fluorescent light prior to stimulus application. To calculate dose–response relationships, the changes in fluorescence upon stimulus application were averaged, mock-subtracted and baseline-corrected. The dose–response data obtained were adjusted using a 4-parameter logistic equation. The half-maximal effective concentrations (EC50 values) and maximal signal amplitudes were calculated using SigmaPlot software (version 15.0) (Systat Software; San Jose, CA, USA).
HEK293T-Gα16gust44 cells were transiently cotransfected with pcDNA6-MAX-mTAS1R2-FLAG, pcDNA4-MAX-mTAS1R3-WT-FLAG or pcDNA4-MAX-mTAS1R3-I60T-FLAG, and pCMV-GCaMP5G as previously described in detail. After 24 h, the cells were washed with C1 buffer and stimulated with a logarithmically increasing range of sweetener concentrations. Calcium responses during automated application were monitored using a FlexStation®3 Multi-Mode microplate reader. The dose–response curves, EC50 values and maximal signal amplitudes were calculated as previously described.
For in vitro calcium mobilisation assay performed on hTAS1R2-SNPs, hTAS1R3-SNPs and mTAS1R3-I60T, 6 to 7 concentrations were tested for each sweet compound, plus buffer alone. All concentration–receptor combinations were measured in duplicate, and each experiment was repeated at least 4 times (8 wells/concentration). Results were expressed for each concentration as ΔF/F mean ± SEM and represented as dose–response curves.

EC50 [µM]	Max ΔF/F0	activation of the mouse sweet taste receptor	Compound
		not activated	COC(=O)[C@H](Cc1ccccc1)NC(=O)[C@H](CC(=O)O)NCCC(C)(C)C [Neotame]
		not activated	C=C(C)[C@@H]1CC=C(/C=N/O)CC1 [Perillartine, perillartine]
44 ± 4	1.41 ± 0.05		C=C1C[C@@]23CC[C@H]4[C@@](C)(CCC[C@@]4(C)C(=O)O[C@@H]4O[C@H](CO)[C@@H](O)[C@H](O[C@@H]5O[C@H](CO)[C@@H](O)[C@H](O)[C@H]5O)[C@H]4O[C@@H]4O[C@H](CO)[C@@H](O)[C@H](O)[C@H]4O)[C@@H]2CC[C@]1(O[C@@H]1O[C@H](CO)[C@@H](O)[C@H](O[C@@H]2O[C@H](CO)[C@@H](O)[C@H](O)[C@H]2O)[C@H]1O[C@@H]1O[C@H](CO)[C@@H](O)[C@H](O)[C@H]1O)C3 [Rebaudioside M, rebaudioside M]
778 ± 22	2.03 ± 0.02		OC[C@H]1O[C@H](O[C@]2(CCl)O[C@H](CCl)[C@@H](O)[C@@H]2O)[C@H](O)[C@@H](O)[C@H]1Cl [Sucralose]
		not activated	brazzein (QDKCKKVYENYPVSKCQLANQCNYDCKLDKHARSGECFYDEKRNLQCICDYCEY; ends and bridges not checked; cysteine pairing not given here; UniProt P56552 1-54, looked up) [sweet-tasting protein obtained by recombinant production using the yeast Pichia pastoris]
		not activated	thaumatin

More lines, now with the values behind:

Compound	EC50 [µM]	Max ΔF/F0	activation of the mouse sweet taste receptor
CC1=CC(=O)NS(=O)(=O)O1 [Acesulfame K, acesulfame K]	439 ± 10	1.63 ± 0.02	
O=S(=O)(O)NC1CCCCC1 [Cyclamate, cyclamate]			not activated
C[C@H](CC[C@@H](O[C@@H]1O[C@H](CO[C@@H]2O[C@H](CO)[C@@H](O)[C@H](O)[C@H]2O)[C@@H](O)[C@H](O)[C@H]1O[C@@H]1O[C@H](CO)[C@@H](O)[C@H](O)[C@H]1O)C(C)(C)O)[C@H]1CC[C@@]2(C)[C@@H]3CC=C4[C@@H](CC[C@H](O[C@@H]5O[C@H](CO[C@@H]6O[C@H](CO)[C@@H](O)[C@H](O)[C@H]6O)[C@@H](O)[C@H](O)[C@H]5O)C4(C)C)[C@]3(C)[C@H](O)C[C@]12C [Mogroside V, mogroside V]	133 ± 6	0.84 ± 0.02	
COc1ccc(CCC(=O)c2c(O)cc(O[C@@H]3O[C@H](CO)[C@@H](O)[C@H](O)[C@H]3O[C@@H]3O[C@@H](C)[C@H](O)[C@@H](O)[C@H]3O)cc2O)cc1O [NHDC, neohesperidin dihydrochalcone]			not activated
